Entries after “also recorded” stand apart in the source; their conditions may differ.
Tests used:
FKBP L106P-YFP fusion = target: T1, FKBP L106P-YFP fusion (Homo sapiens, UniProt P62942, F37V); experiment: Shield1 dose-response of FKBP-YFP fluorescence, flow cytometry; type: cell-based
T1 construct: expressed in transfected cells
Method: (§1) Experiments were performed in triplicate.

[1] = target: T2, FKBP variant V24A-YFP fusion protein (Homo sapiens, UniProt P62942, F37V/V25A); experiment: as above; type: cell-based; conditions: NIH3T3 cells stably expressing V24A FKBP-YFP
T2 construct: expressed in transfected cells; host or cells: NIH3T3 (retroviral transduction)
Method: as §1

L106P-tsLuc = target: T3, L106P-tsLuc (Homo sapiens, UniProt P62942, F37V); experiment: In vivo bioluminescence imaging of HCT116 L106P-luciferase xenografts; parameters: species or system SCID mice
T3 construct: expressed in transfected cells

L-L106P-IL-2 [2] = target: T4, L-L106P-IL-2 (Homo sapiens, UniProt P60568); experiment: IL-2 secreted by HCT116 L-L106P-IL-2 cells, ELISA of culture media; type: cell-based; conditions: dose-dependent on Shield1 in the media
T4 construct: IL-2 signal peptide (L), human IL-2 (N); expressed in transfected cells; in culture (A11) or as xenograft in CD1 nu-/nu- mice (A13)
Method: (§2) FIGS. 22A-22D show graphs relating to the conditional stabilization of a secreted immunomodulatory protein leads. […] Data are represented as the average IL-2 concentration ±SEM (n=3). […] Tumor volume was determined by caliper measurement and monitored over time. Data are represented as the average tumor volume ±SEM (n=5).
Interleukin-2 (IL-2) is a cytokine that is instrumental in immune response, inducing the differentiation and proliferation of a variety of lymphocyte populations (Gaffen, S. L. and Liu, K. D. (2004) Cytokine 28:109-23). Recombinant IL-2 is approved for clinical treatment of renal cancers and is used in a variety of other cancer therapies. Polynucleotides encoding the L106P stability-affecting protein were inserted between polynucleotides of the IL-2 gene that encode the signal peptide and the remainder of the IL-2 protein to produce the chimeric gene, L-L106P-IL-2, which was stably introduced into HCT116 cells. […]
Thermostable luciferase or the human IL-2 gene were cloned into pBMN L106P iBlasticidin and used to generate amphotropic retrovirus (Banaszynski, L. A. et al. (2006) Cell. 126:995-1004). […] Cells grown in 96-well plates (2×10^4 cells/well) were treated with Shield1 as indicated and either bioluminescence measured using an IVIS 50 (Xenogen Product from Caliper Life Sciences) following luciferin addition (300 μg/mL), or media collected for ELISA.

[3] = system: HCT116 L-L106P-IL-2 tumors; type: in vivo
Method: FIGS. 22A-22D show graphs relating to the conditional stabilization of a secreted immunomodulatory protein leads. […]. Data are represented as the average IL-2 concentration ±SEM (n=3). […]. Tumor volume was determined by caliper measurement and monitored over time. Data are represented as the average tumor volume ±SEM (n=5).
[…]. Tumors in the untreated control animals continued to increase in size over the course of the experiment. […].
(§3) SCID or CD1 nu-/nu-mice (Charles River Co.) received subcutaneous dorsal injections of ˜1×10^7 cells, and tumors were allowed to establish as indicated. Animals were given an intraperitoneal injection of luciferin (225 mg/kg), anesthetized (2% isoflurane), and placed on the warmed stage (37° C.) of an IVIS 100 or IVIS 200 (Xenogen Product from Caliper Life Sciences) for imaging. Light produced was measured as photons/sec for designated regions of interest as described. Tumor volumes were also determined by caliper measurement, and mice were sacrificed when tumors reached 1.44 cm^3 for survival assays. In some experiments, serum samples were collected by retino-orbital bleedings and tumors collected post-mortem and homogenized for ELISA assay of cytokines. All experiments were run with institutional IACUC approval.

L-L106P-IL-2 [4] = target: T4, L-L106P-IL-2; experiment: IL-2 in tumor and serum of xenografted mice, ELISA; type: in vivo, CD1 nu-/nu-mice; conditions: 48 hr after start
Method: as §2
Analysis of IL-2 levels within the tumors of treated and untreated mice confirmed dose-dependent production of IL-2 at the tumor site in mice treated at 5 or 10 mg/kg Shield1 (FIG. 22C; p=0.032). […] A dose of 5 mg/kg Shield1 was sufficient to produce the same robust anti-tumor response as 10 mg/kg Shield1, while avoiding the increase in IL-2 serum levels associated with the higher ligand dose.
as §3

vvDD = type: cell-based, vaccinia virus
[5] = mouse, in vivo
FKBP F36V variant = FKBP F36V variant (Homo sapiens, UniProt P62942, F37V); conditions: Clackson et al. 1998; cited from earlier work
HCT116 tumors = experiment: vvDD L-L106P-IL-2 in mice bearing HCT116 tumors
FKBP-YFP fusion proteins [6] = target: FKBP-YFP fusion proteins (Homo sapiens, UniProt P62942, F37V); experiment: Kinetics of FKBP-YFP fluorescence upon addition of Shield1; conditions: L106P-YFP, various concentrations of Shield1
FKBP-YFP fusion proteins [7] = experiment: as above
[8] = cited from earlier work

T3 sequence (P62942 with tags, fused parts or gaps F37V): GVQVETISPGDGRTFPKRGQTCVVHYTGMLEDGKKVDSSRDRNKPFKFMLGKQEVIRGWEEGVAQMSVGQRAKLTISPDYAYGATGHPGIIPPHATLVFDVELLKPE
T4 sequence (P60568 with tags, fused parts or gaps): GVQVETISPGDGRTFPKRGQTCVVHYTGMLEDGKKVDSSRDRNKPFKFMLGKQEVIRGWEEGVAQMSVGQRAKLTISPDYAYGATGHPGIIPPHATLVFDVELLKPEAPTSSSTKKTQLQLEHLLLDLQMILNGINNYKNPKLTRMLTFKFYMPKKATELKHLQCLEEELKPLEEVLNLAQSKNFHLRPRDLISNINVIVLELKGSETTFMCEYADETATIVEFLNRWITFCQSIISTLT
T1 sequence (P62942 with tags, fused parts or gaps F37V): as the sequence (P62942 with tags, fused parts or gaps F37V) above
Sequence of FKBP F36V variant (P62942 2-108 F37V limits assumed): as the sequence (P62942 with tags, fused parts or gaps F37V) above, with P106L counted along it
Sequence of FKBP-YFP fusion proteins (Homo sapiens, UniProt P62942, F37V) (P62942 with tags, fused parts or gaps F37V): as the sequence (P62942 with tags, fused parts or gaps F37V) above
T2 sequence (P62942 2-108 V25A/F37V): as the sequence (P62942 with tags, fused parts or gaps F37V) above, with V24A, P106L counted along it

## 1-[2-(3,4,5-trimethoxy-phenyl)-butyryl]-piperazine-2-carboxylic acid 3-(3,4-dimethoxy-phenyl)-1-[3-(2-morpholin-4-yl-ethoxy)-phenyl]-propyl ester [Shield1]
FKBP L106P-YFP fusion; 1 μM Shield1
  Stabilization of FKBP L106P-YFP fusion protein: fully stabilized
FKBP L106P-YFP fusion; NIH3T3 cells stably expressing L106P-YFP, read-out: EC50 of Shield1 to stabilize the YFP fusion protein
  EC50: ~100 nM
[1]
  EC50: ~5 nM
L106P-tsLuc; 10 mg/kg ip
  Time for bioluminescent signals to return to background: ≤ 48 h
L106P-tsLuc; 10 mg/kg ip, FIG. 21B
  Increase in bioluminescent signal in the presence compared to the absence of Shield1: ~10 fold
L106P-tsLuc; 10 mg/kg ip, L106P-tsLuc, FIG. 21A
  Time of maximum expression levels following treatment: 12 h
L106P-tsLuc; 10 mg/kg once every 48 hours
  Bioluminescence under periodic treatment: maintain increased bioluminescence levels over the course of several weeks
L106P-tsLuc; 3, 6, or 10 mg/kg
  Bioluminescence with increasing doses: increasing bioluminescence levels
L106P-tsLuc; FIG. 7A, luciferase fused to FKBP F36V/L106P
  Time of peak luminescence following a single injection of ligand: about 10 hours
L-L106P-IL-2 [2]
  Dynamic range of secreted IL-2: approximately 25 fold
[3]; cells pretreated with Shield1, then 10 mg/kg every 48 hours
  Tumor establishment: Tumors failed to establish
[3]; day 16, all Shield1-treated groups
  Tumor burden relative to untreated animals: significantly reduced tumor burden
[3]; i.p. 5 or 10 mg/kg every 48 hours from five days after implantation
  Tumor size: tumor regression
L-L106P-IL-2 [4]; 5 mg/kg
  IL-2 per gram tumor tissue: more IL-2 than tumors from untreated mice
  Serum IL-2 levels: did not produce any increase in serum IL-2 levels
L-L106P-IL-2 [4]; 10 mg/kg
  IL-2 per gram tumor tissue: significantly higher levels of IL-2 than tumors from mice treated at 5 mg/kg
  Serum IL-2 levels: significantly higher levels of serum IL-2; also recorded: significantly elevated levels
vvDD
  Replication of the virus: did not affect the replication of the virus
[5]
  Feeding behavior, body weight, overall activity: did not appear to affect feeding behavior, body weight, or overall activity
FKBP F36V variant
  Binding tighter to the F36V variant compared to wild-type FKBP: about 1,000 fold
HCT116 tumors; delayed clearance of virus
  Treg infiltration into tumor: increase in Treg infiltration
HCT116 tumors; no Shield1 during the first 72 hours after vvDD L-L106P-IL-2
  Survival of treated animals: greater percent survival of the treated animals
FKBP-YFP fusion proteins [6]
  Time until YFP expression is observed: ≤ 15 min
FKBP-YFP fusion proteins [7]; NIH3T3 cells, FKBP-YFP variants
  Time of maximum fluorescence after addition of Shield1: 24 h
FKBP-YFP fusion proteins [7]; after the maximum at 24 hours
  Time fluorescence is stably maintained without further addition of Shield1: ≥ 48 h

## C20-methallylrapamycin [MaRap]
[8]
  Pharmacokinetic properties in vivo: poor pharmacokinetic properties in vivo

From patent US8530636B2, “Method for regulating protein function in cells in vivo using synthetic small molecules” (priority 2008, dated 2013)
